# Results reported in publication PMC4468408 (ACS Medicinal Chemistry Letters, 2015).
# Like-named read-outs stand apart in the source and are kept apart here.
# Columns and labels:
# P-gp = P-gp substrate test in transfected MDCK cells; type: in vitro ADME
# human tumor xenografts = settings: cited from earlier work
# in vitro metabolism = type: in vitro ADME
# [1] = brain total exposure in nude mice; settings: for AUC brain (AUC0–8h) / brain Cmax: sodium salts PO 30 mg/kg
# [2] = oral dosing of SD rats: exposure, GABAA related effects, toxicity; type: in vivo, SD rat; settings: for effects attributable to GABAA binding (CNS effects): SD rats dosed orally; for toxicities observed at the maximum tolerated dose: SD rats, orally for seven consecutive days
# major human CYP isozymes = experiment: CYP inhibition; type: in vitro ADME
# [3] = Phase I; cited from earlier work
# [4] = pharmacokinetics in Sprague-Dawley rat; type: in vivo; settings: IV 1 mg/kg, 10% 2-HP-β-CD
# [5] = stability in human S9 fraction; type: in vitro ADME
stability in human S9 fraction [5],Structure (SMILES),substrate of P-gp (P-gp),tumor growth inhibition (human tumor xenografts; multiple xenograft efficacy models in immunocompromised mice),in vitro metabolism (in vitro metabolism),AUC brain (AUC0–8h) [1] [ng·h/mL],brain Cmax [1] [ng/mL],effects attributable to GABAA binding (CNS effects) [2],toxicities observed at the maximum tolerated dose [2],CYP inhibition (major human CYP isozymes; concentrations up to 100 μM),tumor growth inhibition (human tumor xenografts; multiple human tumor xenograft models),incidence of somnolence [3],IC50 (major human CYP isozymes; human) [µM],CL [4] [mL min^–1 kg^–1],brain AUC reduction ([1]; compared with MLN8054) [fold]
,O=C(O)c1ccc(Nc2ncc3c(n2)-c2ccc(Cl)cc2C(c2c(F)cccc2F)=NC3)cc1 [MLN8054 (8)],not a substrate of P-gp,"Significant tumor growth inhibition, with no overt toxicity",predominantly through CYP1A2 and 3A4,12500,2600,reversible central nervous system (CNS) effects,myelosuppression and mucositis,no CYP inhibition is observed,,,,,
,COc1cc(Nc2ncc3c(n2)-c2ccc(Cl)cc2C(c2c(F)cccc2OC)=NC3)ccc1C(=O)O [alisertib (10)],not a substrate of P-gp,,low and is mediated through multiple CYP isoforms and UGTs,2000,420,No effects attributable to GABAA binding were observed,myelosuppression and mucositis,,significant tumor growth inhibition,not dose limiting,> 100,10.4,
stable in human S9 fraction,O=C(O)c1ccc(Nc2ncc3c(n2)-c2ccc(Cl)cc2C(c2ccccc2F)=NC3)cc1 [compound 7],,,,,,,,,,,,,
,COc1cccc(F)c1C1=NCc2cnc(Nc3ccc(C(=O)O)cc3)nc2-c2ccc(Cl)cc21 [compound 9],,,,3500,930,No effects attributable to GABAA binding were observed,,,,,,,3
